Reference: patent publication US7244738B2, “Arylamine-substituted quinazolinone compounds useful as alpha 1A/B adrenergic receptor antagonists” (Roche Palo Alto LLC, priority 2003, dated 2007)

`COCCOC(=O)N(C)Cc1cccc(CN(C)c2nc(=O)c3c(C)c(OC)c(OC)cc3[nH]2)c1` [Example 294, (3-{[(6,7-Dimethoxy-5-methyl-4-oxo-1,4-dihydro-quinazolin-2-yl)-methyl-amino]-methyl}-benzyl)-methyl-carbamic acid 2-methoxy-ethyl ester] and `COCCOc1cccc(CN(C)c2nc(=O)c3c(C)c(OC)c(OC)cc3[nH]2)c1` [Example F-10, 6,7-Dimethoxy-2-{[3-(2-methoxy-ethoxy)-benzyl]-methyl-amino}-5-methyl-1H-quinazolin-4-one] cannot be ordered by melting point: 145.8 to 146.9 °C for the first, 144.8 to 145.9 °C for the second.

Compared with `COc1cc2[nH]c(N(Cc3ccccc3)C(C)C)nc(=O)c2cc1OC` [Example A-7, 2-(Benzyl-isopropyl-amino)-6,7-dimethoxy-1H-quinazolin-4-one], `COc1cc2[nH]c(N(C)Cc3cccc(N4C=NC(C)(C)C4)c3)nc(=O)c2cc1OC` [Example A-12, 2-{[3-(4,4-Dimethyl-4,5-dihydro-imidazol-1-yl)-benzyl]-methyl-amino}-6,7-dimethoxy-1H-quinazolin-4-one] is higher in melting point: 168 to 170.5 °C for the first, 240 to 244 °C for the second.

First: COc1cc2[nH]c(N(C)Cc3cccc(N)c3)nc(=O)c2c(C)c1OC [Example B-1, 2-[(3-Amino-benzyl)-methyl-amino]-6,7-dimethoxy-5-methyl-1H-quinazolin-4-one]
Second: COc1cc2[nH]c(N(C)Cc3cccc(NC(C)=N)c3)nc(=O)c2c(C)c1OC [Example G-26, N-(3-{[(6,7-Dimethoxy-5-methyl-4-oxo-1,4-dihydro-quinazolin-2-yl)-methyl-amino]-methyl}-phenyl)-acetamidine]
The melting point of the first is higher: 268 to 269.5 °C for the first, 155 to 158 °C for the second.

First: CNCc1cccc(CN(C)c2nc3cc(OC)c(OC)c(C)c3c(=O)[nH]2)c1 [Example C-1, 6,7-Dimethoxy-5-methyl-2-[methyl-(3-methylaminomethyl-benzyl)-amino]-1H-quinazolin-4-one]
Second: COc1cc2nc(N(C)Cc3cccc(OC[S+](C)[O-])c3)[nH]c(=O)c2c(C)c1OC (stereo not drawn) [Example F-2, 2-[(3-Methanesulfinylmethoxy-benzyl)-methyl-amino]-6,7-dimethoxy-5-methyl-1H-quinazolin-4-one]
The melting point of the first is lower: 179 to 181.3 °C for the first, 191 to 193.5 °C for the second.

Compared with `COc1cc2nc(N(C)Cc3cccc(OCCO)c3)[nH]c(=O)c2c(OC)c1OC` [Example F-1, 2-{[3-(2-Hydroxy-ethoxy)-benzyl]-methyl-amino}-5,6,7-trimethoxy-1H-quinazolin-4-one], `COc1cc2[nH]c(N(C)Cc3cccc(OCCO)c3)nc(=O)c2c(C)c1OC` [Example F-9, 2-{[3-(2-Hydroxy-ethoxy)-benzyl]-methyl-amino}-6,7-dimethoxy-5-methyl-1H-quinazolin-4-one] is higher in melting point: 146 to 147.5 °C for the first, 180.5 to 183.1 °C for the second.

Compared with `COc1cc2[nH]c(N(C)Cc3cccc(OCS(C)(=O)=O)c3)nc(=O)c2c(OC)c1OC` [Example F-6, 2-[(3-Methanesulfonylmethoxy-benzyl)-methyl-amino]-5,6,7-trimethoxy-1H-quinazolin-4-one], `COCCOc1cccc(CN(C)c2nc(=O)c3c(OC)c(OC)c(OC)cc3[nH]2)c1` [Example F-11, 5,6,7-Trimethoxy-2-{[3-(2-methoxy-ethoxy)-benzyl]-methyl-amino}-1H-quinazolin-4-one] is lower in melting point: 183.9 to 185.4 °C for the first, 144.8 to 145.9 °C for the second.

Compared with `COc1cc2[nH]c(N(C)Cc3cccc(Oc4ncccn4)c3)nc(=O)c2c(OC)c1OC` [Example F-16, 5,6,7-Trimethoxy-2-{methyl-[3-(pyrimidin-2-yloxy)-benzyl]-amino}-1H-quinazolin-4-one], `COc1cc2[nH]c(N(C)Cc3cccc(NCCO)c3)nc(=O)c2c(OC)c1OC` [Example G-16, 2-{[3-(2-Hydroxy-ethylamino)-benzyl]-methyl-amino}-5,6,7-trimethoxy-1H-quinazolin-4-one] is lower in melting point: 191 to 192.9 °C for the first, 60.5 to 61.4 °C for the second.

First: COc1cc2[nH]c(N(C)Cc3cccc(NS(C)(=O)=O)c3)nc(=O)c2c(C(C)C)c1OC [Example G-2, N-(3-{[(5-Isopropyl-6,7-dimethoxy-4-oxo-1,4-dihydro-quinazolin-2-yl)-methyl-amino]-methyl}-phenyl)-methanesulfonamide]
Second: COCCNc1cccc(CN(C)c2nc(=O)c3c(OC)c(OC)c(OC)cc3[nH]2)c1 [Example G-19, 5,6,7-Trimethoxy-2-{[3-(2-methoxy-ethylamino)-benzyl]-methyl-amino}-1H-quinazolin-4-one]
The melting point of the first is higher: 215 to 217 °C for the first, 178.9 to 179.9 °C for the second.

First: COc1cc2[nH]c(N(C)Cc3cccc(NCCCO)c3)nc(=O)c2c(OC)c1OC [Example G-18, 2-{[3-(3-Hydroxy-propylamino)-benzyl]-methyl-amino}-5,6,7-trimethoxy-1H-quinazolin-4-one]
Second: COc1cc2[nH]c(N(C)Cc3cccc(NC4=NCCC4)c3)nc(=O)c2c(OC)c1OC [Example G-43, 2-{[3-(4,5-Dihydro-3H-pyrrol-2-ylamino)-benzyl]-methyl-amino}-5,6,7-trimethoxy-1H-quinazolin-4-one]
The melting point of the first is lower: 47 to 48.5 °C for the first, 207 to 209 °C for the second.

First: COCCN(C)c1cccc(CN(C)c2nc(=O)c3c(OC)c(OC)c(OC)cc3[nH]2)c1 [Example G-20, 5,6,7-Trimethoxy-2-({3-[(2-methoxy-ethyl)-methyl-amino]-benzyl}-methyl-amino)-1H-quinazolin-4-one]
Second: COCCC(=Nc1cccc(CN(C)c2nc(=O)c3c(OC)c(OC)c(OC)cc3[nH]2)c1)N(C)C [Example G-36, 3-Methoxy-N,N-dimethyl-N′-(3-{[methyl-(5,6,7-trimethoxy-4-oxo-1,4-dihydro-quinazolin-2-yl)-amino]-methyl}-phenyl)-propionamidine]
The melting point of the first is higher: 179.3 to 181.2 °C for the first, 145 °C for the second.

First: COc1cc2[nH]c(N(C)Cc3cccc(N=CN(C)C)c3)nc(=O)c2c(C)c1OC [Example G-30, N′-(3-{[(6,7-Dimethoxy-5-methyl-4-oxo-1,4-dihydro-quinazolin-2-yl)-methyl-amino]-methyl}-phenyl)-N,N-dimethyl-formamidine]
Second: COc1cc2[nH]c(N(C)Cc3cccc(N=C4NCCN4)c3)nc(=O)c2c(C)c1OC [Example G-38, 2-{[3-(Imidazolidin-2-ylideneamino)-benzyl]-methyl-amino}-6,7-dimethoxy-5-methyl-1H-quinazolin-4-one]
The melting point of the first is higher: 185 to 186 °C for the first, 141.3 to 144.7 °C for the second.

Compared with `COc1cc2[nH]c(N(C)Cc3cccc(N=C(C(C)C)N(C)C)c3)nc(=O)c2c(OC)c1OC` [Example G-32, N,N-Dimethyl-N′-(3-{[methyl-(5,6,7-trimethoxy-4-oxo-1,4-dihydro-quinazolin-2-yl)-amino]-methyl}-phenyl)-isobutyramidine], `CCc1c(OC)c(OC)cc2[nH]c(N(C)Cc3cccc(N=C(C)N(C)C)c3)nc(=O)c12` [Example G-33, N′-(3-{[(5-Ethyl-6,7-dimethoxy-4-oxo-1,4-dihydro-quinazolin-2-yl)-methyl-amino]-methyl}-phenyl)-N,N-dimethyl-acetamidine] is higher in melting point: 148 to 150 °C for the first, 224.6 to 225.5 °C for the second.

First: COc1cc2[nH]c(N(C)Cc3cccc(N=C4CCCN4C)c3)nc(=O)c2c(OC)c1OC [Example G-39, 5,6,7-Trimethoxy-2-{methyl-[3-(1-methyl-pyrrolidin-2-ylideneamino)-benzyl]-amino}-1H-quinazolin-4-one]
Second: COc1cc2nc(N(C)Cc3cccc(N4CCCC4=O)c3)[nH]c(=O)c2c(OC)c1OC [Example H-1, 5,6,7-Trimethoxy-2-{methyl-[3-(2-oxo-pyrrolidin-1-yl)-benzyl]-amino}-1H-quinazolin-4-one]
The melting point of the first is lower: 130 to 133 °C for the first, 165.5 to 166.5 °C for the second.

`COc1cc2[nH]c(N(C)Cc3cccc(NC4=NCCC4)c3)nc(=O)c2c(C)c1OC` [Example G-42, 2-{[3-(4,5-Dihydro-3H-pyrrol-2-ylamino)-benzyl]-methyl-amino}-6,7-dimethoxy-5-methyl-1H-quinazolin-4-one] and `COc1cc2[nH]c(N(C)Cc3cccc(N4CCN=C4C)c3)nc(=O)c2c(C)c1OC` [Example H-6, 6,7-Dimethoxy-5-methyl-2-{methyl-[3-(2-methyl-4,5-dihydro-imidazol-1-yl)-benzyl]-amino}-1H-quinazolin-4-one] cannot be ordered by melting point: 175.4 to 177.2 °C for the first, 177 to 180 °C for the second.

Compared with `COc1cc2nc(N(C)Cc3cccc(C4=NCCN4C)c3)[nH]c(=O)c2c(C)c1OC` [Example H-2, 6,7-Dimethoxy-5-methyl-2-{methyl-[3-(1-methyl-4,5-dihydro-1H-imidazol-2-yl)-benzyl]-amino}-1H-quinazolin-4-one], `COc1cc2nc(N(C)Cc3cccc(C4CCN(C)CC4)c3)[nH]c(=O)c2c(C)c1OC` [Example H-3, 6,7-Dimethoxy-5-methyl-2-{methyl-[3-(1-methyl-piperidin-4-yl)-benzyl]-amino}-1H-quinazolin-4-one] is higher in melting point: 145 to 148 °C for the first, 155.7 to 158 °C for the second.
